{"source": "PubChem BioAssay AID2060617", "about": "(Molecular Pharmacology Branch, DTP, NCI, 2025)", "test_system": "485368-065-R4-J2-PDC spheroids with HUVEC/MSC, viability", "assay": "Anticancer human tumor 485368-065-R4-J2-PDC patient-derived pancreatic carcinoma cell line growth inhibition [CLK]", "settings": "for viability, T/C: stronger effect = lower value", "how_it_was_run": "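Multi-cell-type spheroids combined patient-derived tumor cells with HUVEC endothelial cells and human mesenchymal stem cells. Paired agents were dosed in half-log steps down from about clinical Cmax, or from 10 microM where Cmax was unknown.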", "key": {"[1]": {"settings": "curve of first compound, second compound 0.0316 µM"}, "[2]": {"settings": "curve of first compound, second compound 0.1 µM"}, "[3]": {"settings": "curve of first compound, second compound 0.316 µM"}, "[4]": {"settings": "curve of first compound, second compound 1 µM"}, "[5]": {"settings": "curve of first compound, second compound 3.16 µM"}, "[6]": {"settings": "curve of first compound, second compound 10 µM"}, "[7]": {"settings": "second compound 0.0316 µM, first compound 0.0316 µM"}, "[8]": {"settings": "second compound 0.0316 µM, first compound 0.1 µM"}, "[9]": {"settings": "second compound 0.0316 µM, first compound 0.316 µM"}, "[10]": {"settings": "second compound 0.0316 µM, first compound 1 µM"}, "[11]": {"settings": "second compound 0.1 µM, first compound 0.0316 µM"}, "[12]": {"settings": "second compound 0.1 µM, first compound 0.1 µM"}, "[13]": {"settings": "second compound 0.1 µM, first compound 0.316 µM"}, "[14]": {"settings": "second compound 0.1 µM, first compound 1 µM"}, "[15]": {"settings": "second compound 0.316 µM, first compound 0.0316 µM"}, "[16]": {"settings": "second compound 0.316 µM, first compound 0.1 µM"}, "[17]": {"settings": "second compound 0.316 µM, first compound 0.316 µM"}, "[18]": {"settings": "second compound 0.316 µM, first compound 1 µM"}, "[19]": {"settings": "second compound 1 µM, first compound 0.0316 µM"}, "[20]": {"settings": "second compound 1 µM, first compound 0.1 µM"}, "[21]": {"settings": "second compound 1 µM, first compound 0.316 µM"}, "[22]": {"settings": "second compound 1 µM, first compound 1 µM"}, "[23]": {"settings": "second compound 3.16 µM, first compound 0.0316 µM"}, "[24]": {"settings": "second compound 3.16 µM, first compound 0.1 µM"}, "[25]": {"settings": "second compound 3.16 µM, first compound 0.316 µM"}, "[26]": {"settings": "second compound 3.16 µM, first compound 1 µM"}, "[27]": {"settings": "second compound 10 µM, first compound 0.0316 µM"}, "[28]": {"settings": "second compound 10 µM, first compound 0.1 µM"}, "[29]": {"settings": "second compound 10 µM, first compound 0.316 µM"}, "[30]": {"settings": "second compound 10 µM, first compound 1 µM"}}, "note": "“And” between values parts separate entries of the source, which are not always exact repeats. Equal entries are not always repeated.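 Note: spheroids exposed to compounds for seven days.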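 Throughout, for viability, T/C: 100% = DMSO vehicle control wells.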", "data": [{"smiles": "Nc1ccn(C2OC(CO)C(O)C2(F)F)c(=O)n1", "note": "(stereo unspecified) + CN1CCN(c2cc(C(=O)Nc3cc4cc(-c5cnn(C)c5)ccc4cn3)ccn2)CC1", "values": [{"measurement": "IC50", "setting": "[1]", "result": "< 31.6", "unit": "nM"}, {"measurement": "IC50", "setting": "[2]", "result": "< 31.6", "unit": "nM"}, {"measurement": "IC50", "setting": "[3]", "result": "< 31.6", "unit": "nM"}, {"measurement": "IC50", "setting": "[4]", "result": "< 31.6", "unit": "nM"}, {"measurement": "IC50", "setting": "[5]", "result": "< 31.6", "unit": "nM"}, {"measurement": "IC50", "setting": "[6]", "result": "< 31.6", "unit": "nM"}, {"measurement": "viability, T/C", "setting": "[7]", "result": 48.5, "unit": "%"}, {"measurement": "viability, T/C", "setting": "[8]", "result": 32.7, "unit": "%"}, {"measurement": "viability, T/C", "setting": "[9]", "result": 24.1, "unit": "%"}, {"measurement": "viability, T/C", "setting": "[10]", "result": 24.2, "unit": "%"}, {"measurement": "viability, T/C", "setting": "second compound 0.0316 µM, first compound 3.16 µM", "result": 25.3, "unit": "%"}, {"measurement": "viability, T/C", "setting": "second compound 0.0316 µM, first compound 10 µM", "result": 21.6, "unit": "%"}, {"measurement": "viability, T/C", "setting": "[11]", "result": 39.2, "unit": "%"}, {"measurement": "viability, T/C", "setting": "[12]", "result": 21.1, "unit": "%"}, {"measurement": "viability, T/C", "setting": "[13]", "result": 19.5, "unit": "%"}, {"measurement": "viability, T/C", "setting": "[14]", "result": 16.6, "unit": "%"}, {"measurement": "viability, T/C", "setting": "second compound 0.1 µM, first compound 3.16 µM", "result": 16.6, "unit": "%"}, {"measurement": "viability, T/C", "setting": "second compound 0.1 µM, first compound 10 µM", "result": 13.8, "unit": "%"}, {"measurement": "viability, T/C", "setting": "[15]", "result": 28.5, "unit": "%"}, {"measurement": "viability, T/C", "setting": "[16]", "result": 16.6, "unit": "%"}, {"measurement": "viability, T/C", "setting": "[17]", "result": 14.1, "unit": "%"}, {"measurement": "viability, T/C", "setting": "[18]", "result": 14.9, "unit": "%"}, {"measurement": "viability, T/C", "setting": "second compound 0.316 µM, first compound 3.16 µM", "result": 14.1, "unit": "%"}, {"measurement": "viability, T/C", "setting": "second compound 0.316 µM, first compound 10 µM", "result": 12.8, "unit": "%"}, {"measurement": "viability, T/C", "setting": "[19]", "result": 0.77, "unit": "%"}, {"measurement": "viability, T/C", "setting": "[20]", "result": 2.15, "unit": "%"}, {"measurement": "viability, T/C", "setting": "[21]", "result": 3.11, "unit": "%"}, {"measurement": "viability, T/C", "setting": "[22]", "result": 1.96, "unit": "%"}, {"measurement": "viability, T/C", "setting": "second compound 1 µM, first compound 3.16 µM", "result": 2.6, "unit": "%"}, {"measurement": "viability, T/C", "setting": "second compound 1 µM, first compound 10 µM", "result": 3.01, "unit": "%"}, {"measurement": "viability, T/C", "setting": "[23]", "result": 1.85, "unit": "%"}, {"measurement": "viability, T/C", "setting": "[24]", "result": 1.43, "unit": "%"}, {"measurement": "viability, T/C", "setting": "[25]", "result": 2.71, "unit": "%"}, {"measurement": "viability, T/C", "setting": "[26]", "result": 4.76, "unit": "%"}, {"measurement": "viability, T/C", "setting": "second compound 3.16 µM, first compound 3.16 µM", "result": 2.68, "unit": "%"}, {"measurement": "viability, T/C", "setting": "second compound 3.16 µM, first compound 10 µM", "result": 5.26, "unit": "%"}, {"measurement": "viability, T/C", "setting": "[27]", "result": 1.32, "unit": "%"}, {"measurement": "viability, T/C", "setting": "[28]", "result": 2.34, "unit": "%"}, {"measurement": "viability, T/C", "setting": "[29]", "result": 1.93, "unit": "%"}, {"measurement": "viability, T/C", "setting": "[30]", "result": 2.61, "unit": "%"}, {"measurement": "viability, T/C", "setting": "second compound 10 µM, first compound 3.16 µM", "result": 2.98, "unit": "%"}, {"measurement": "viability, T/C", "setting": "second compound 10 µM, first compound 10 µM", "result": 2.55, "unit": "%"}]}, {"smiles": "CC(CO)NC(=O)c1cc(-c2ccc(Cl)cc2)nn(-c2cnn(C)c2)c1=O", "note": "(stereo unspecified)", "values": [{"measurement": "viability, T/C", "setting": "compound 0.0316 µM", "result": "86.9% and 92.3%"}, {"measurement": "viability, T/C", "setting": "compound 0.1 µM", "result": "92.6% and 87.3%"}, {"measurement": "viability, T/C", "setting": "compound 0.316 µM", "result": "97.4% and 89.7%"}, {"measurement": "viability, T/C", "setting": "compound 1 µM", "result": "100% and 101%"}, {"measurement": "viability, T/C", "setting": "compound 3.16 µM", "result": "107% and 110%"}, {"measurement": "viability, T/C", "setting": "compound 10 µM", "result": "105% and 104%"}, {"measurement": "IC50", "setting": "curve of compound", "result": "> 10000", "unit": "nM"}]}, {"smiles": "CCc1c2c(nc3ccc(O)cc13)-c1cc3c(c(=O)n1C2)COC(=O)[C@]3(O)CC", "note": "+ CNC(=O)c1ccc(Nc2nc(OC3CCCC3)c3c(-c4ccc5nc(C)oc5c4)c[nH]c3n2)c(OC)c1", "values": [{"measurement": "IC50", "setting": "[1]", "result": 3.69, "unit": "nM"}, {"measurement": "IC50", "setting": "[2]", "result": "< 3.16", "unit": "nM"}, {"measurement": "IC50", "setting": "[3]", "result": "< 3.16", "unit": "nM"}, {"measurement": "IC50", "setting": "[4]", "result": "< 3.16", "unit": "nM"}, {"measurement": "IC50", "setting": "[5]", "result": "< 3.16", "unit": "nM"}, {"measurement": "IC50", "setting": "[6]", "result": "< 3.16", "unit": "nM"}, {"measurement": "viability, T/C", "setting": "second compound 0.0316 µM, first compound 0.00316 µM", "result": 53.6, "unit": "%"}, {"measurement": "viability, T/C", "setting": "second compound 0.0316 µM, first compound 0.01 µM", "result": 27, "unit": "%"}, {"measurement": "viability, T/C", "setting": "[7]", "result": 13.1, "unit": "%"}, {"measurement": "viability, T/C", "setting": "[8]", "result": 7.46, "unit": "%"}, {"measurement": "viability, T/C", "setting": "[9]", "result": 10.5, "unit": "%"}, {"measurement": "viability, T/C", "setting": "[10]", "result": 16, "unit": "%"}, {"measurement": "viability, T/C", "setting": "second compound 0.1 µM, first compound 0.00316 µM", "result": 46.3, "unit": "%"}, {"measurement": "viability, T/C", "setting": "second compound 0.1 µM, first compound 0.01 µM", "result": 27, "unit": "%"}, {"measurement": "viability, T/C", "setting": "[11]", "result": 12.6, "unit": "%"}, {"measurement": "viability, T/C", "setting": "[12]", "result": 7.47, "unit": "%"}, {"measurement": "viability, T/C", "setting": "[13]", "result": 8.97, "unit": "%"}, {"measurement": "viability, T/C", "setting": "[14]", "result": 17, "unit": "%"}, {"measurement": "viability, T/C", "setting": "second compound 0.316 µM, first compound 0.00316 µM", "result": 41.9, "unit": "%"}, {"measurement": "viability, T/C", "setting": "second compound 0.316 µM, first compound 0.01 µM", "result": 20.4, "unit": "%"}, {"measurement": "viability, T/C", "setting": "[15]", "result": 11.7, "unit": "%"}, {"measurement": "viability, T/C", "setting": "[16]", "result": 7.63, "unit": "%"}, {"measurement": "viability, T/C", "setting": "[17]", "result": 9, "unit": "%"}, {"measurement": "viability, T/C", "setting": "[18]", "result": 16.2, "unit": "%"}, {"measurement": "viability, T/C", "setting": "second compound 1 µM, first compound 0.00316 µM", "result": 25.8, "unit": "%"}, {"measurement": "viability, T/C", "setting": "second compound 1 µM, first compound 0.01 µM", "result": 13.5, "unit": "%"}, {"measurement": "viability, T/C", "setting": "[19]", "result": 8.98, "unit": "%"}, {"measurement": "viability, T/C", "setting": "[20]", "result": 6.66, "unit": "%"}, {"measurement": "viability, T/C", "setting": "[21]", "result": 10.7, "unit": "%"}, {"measurement": "viability, T/C", "setting": "[22]", "result": 18.1, "unit": "%"}, {"measurement": "viability, T/C", "setting": "second compound 3.16 µM, first compound 0.00316 µM", "result": 20.9, "unit": "%"}, {"measurement": "viability, T/C", "setting": "second compound 3.16 µM, first compound 0.01 µM", "result": 11.3, "unit": "%"}, {"measurement": "viability, T/C", "setting": "[23]", "result": 9.77, "unit": "%"}, {"measurement": "viability, T/C", "setting": "[24]", "result": 7.07, "unit": "%"}, {"measurement": "viability, T/C", "setting": "[25]", "result": 11.5, "unit": "%"}, {"measurement": "viability, T/C", "setting": "[26]", "result": 18.9, "unit": "%"}, {"measurement": "viability, T/C", "setting": "second compound 10 µM, first compound 0.00316 µM", "result": 19.4, "unit": "%"}, {"measurement": "viability, T/C", "setting": "second compound 10 µM, first compound 0.01 µM", "result": 13.9, "unit": "%"}, {"measurement": "viability, T/C", "setting": "[27]", "result": 7.33, "unit": "%"}, {"measurement": "viability, T/C", "setting": "[28]", "result": 7.37, "unit": "%"}, {"measurement": "viability, T/C", "setting": "[29]", "result": 15.9, "unit": "%"}, {"measurement": "viability, T/C", "setting": "[30]", "result": 20.8, "unit": "%"}]}]}
